According to PMC8224802 (Pharmaceutics, 2021):
Where two headings read alike, the source gives them in different places.

Key:
[1] = Plasma protein binding by rapid equilibrium dialysis (human plasma); type: in vitro ADME
Method: (§1) A 200 μL spiked samples and 400 μL PBS were placed into the “sample” and “buffer” chambers of the RED device, respectively. After 4-h incubation to equilibrate between the buffer and plasma compartments, the RED plate was sampled from both compartments. The samples were matrix-matched for analysis by addition of either diluted plasma or buffer; (a) blank diluted plasma added to the buffer samples and (b) blank buffer added to the diluted plasma sample, at a ratio of 50:50 v/v. The unbound fractions in microsomes and diluted plasma were determined by dividing the analyte/IS peak area ratios of the (a) sample by those of the (b) sample. The unbound fraction in diluted plasma (fu,d) was converted to the unbound fraction in undiluted plasma (fu) using a Kalvass equation as below (DF: dilution factor). (1) fu=1/DF/[(1/fu,d)−1]+1/DF

[2] = system: microsomal metabolism of RPG in HLM; assay: In vitro inhibition of RPG metabolism by QCT in HLM; type: in vitro ADME, human; settings: HLM
Method: (§2) The intrinsic metabolic clearance (CLint) was calculated as Vmax/Km. […] The parameter α is indicative of the inhibition type. The mixed model is a general equation that includes competitive, uncompetitive, and noncompetitive inhibition as special cases. When α = 1, the mixed model is identical to a noncompetitive inhibition. When α is very large (α→∞) or very small (α→0), the mixed model becomes identical to competitive inhibition or uncompetitive inhibition, respectively.

[3] = Microsomal protein binding by rapid equilibrium dialysis (HLM)
Method: as §1

[4] = In vitro microsomal metabolism of RPG (disappearance) in RLM; type: in vitro ADME, rat; settings: RLM 0.3 mg/mL, 1–500 μM RPG, Michaelis–Menten fit
Method: At 0, 30, and 60 min after starting the metabolic reaction, a 50 μL aliquot of the incubation mixture was sampled and transferred to a clean 1.5-mL microcentrifuge tube containing 150 μL of ice-cold acetonitrile to terminate the metabolic reaction.
The intrinsic metabolic clearance (CLint) was calculated as Vmax/Km. […] Max and Min are the initial and final Y values, respectively, and the power P represents the Hill coefficient. […] Vmax and Km are the same as those defined in Equation (2). The parameter α is indicative of the inhibition type. The mixed model is a general equation that includes competitive, uncompetitive, and noncompetitive inhibition as special cases. When α = 1, the mixed model is identical to a noncompetitive inhibition. When α is very large (α→∞) or very small (α→0), the mixed model becomes identical to competitive inhibition or uncompetitive inhibition, respectively.

[5] = Blood-to-plasma concentration ratio (human whole blood); type: in vitro ADME; settings: RPG and QCT 5 μM each
Method: A plasma sample was obtained by centrifugation of the blood sample at 2000× g for 5 min.

[6] = In vivo oral pharmacokinetic study of RPG without or with QCT in rats; design: species or system Sprague-Dawley rats; settings: for bioavailability: read-out: F (absolute oral bioavailability)
Method: Rats were anesthetized via intramuscular injection of 10 mg/kg zoletil. The femoral vein and artery of the rats were cannulated using a polyethylene tube (BD Medical, Franklin Lakes, NJ, USA). […] The vehicle solutions for the intravenous and oral doses were composed of PEG 400 and aqueous 0.3% CMC solution (50:50 v/v).
For comparison, the extent of absolute oral bioavailability (F; expressed as percent of dose administered) was calculated by dividing the dose-normalized AUC after oral administration by the dose-normalized AUC after intravenous injection. The peak plasma concentration (Cmax) and time to reach Cmax (Tmax) were obtained directly from the measured experimental data.

[7] = Plasma protein binding by rapid equilibrium dialysis (rat plasma); type: in vitro ADME, Sprague-Dawley rat
Method: as §1

[8] = humans; cited from earlier work
[9] = In vivo intravenous pharmacokinetic study of RPG without or with QCT in rats; design: species or system Sprague-Dawley rats; settings: for AUC / clearance / half-life / Vd: Sprague-Dawley, rat, plasma, 0.4 mg/kg; for Vd: read-out: Vss
Method: Rats were anesthetized via intramuscular injection of 10 mg/kg zoletil. The femoral vein and artery of the rats were cannulated using a polyethylene tube (BD Medical, Franklin Lakes, NJ, USA). […] The vehicle solutions for the intravenous and oral doses were composed of PEG 400 and aqueous 0.3% CMC solution (50:50 v/v). Approximately 300 μL of blood was collected via the femoral artery at 0, 1, 5, 15, 30, 60, 90, 120, 180, and 240 min after intravenous injection and at 10, 20, 30, 45, 60, 90, 120, 180, and 240 min after oral administration.
Non-compartmental analysis (WinNonlin, version 3.1, NCA200 and 201; Certara, Inc., Princeton, NJ, USA) was conducted to estimate the following pharmacokinetic parameters: total area under the plasma concentration–time curve from time zero to time infinity (AUC); total body clearance (CL, calculated as dose/AUC); terminal half-life (t1/2); and apparent volume of distribution at steady state (Vss). For comparison, the extent of absolute oral bioavailability (F; expressed as percent of dose administered) was calculated by dividing the dose-normalized AUC after oral administration by the dose-normalized AUC after intravenous injection. The peak plasma concentration (Cmax) and time to reach Cmax (Tmax) were obtained directly from the measured experimental data.

[10] = system: microsomal metabolism of RPG in RLM; assay: In vitro inhibition of RPG metabolism by QCT in RLM; type: in vitro ADME, rat; settings: RLM
Method: as §2

[11] = Sprague-Dawley, rat, plasma, po, 0.4 mg/kg, rats, RPG 0.4 mg/kg oral with QCT 100 mg/kg oral
[12] = Sprague-Dawley, rat, plasma, po, 0.4 mg/kg, rats, RPG 0.4 mg/kg oral, RPG alone
[13] = rats, RPG 0.4 mg/kg oral with QCT 100 mg/kg oral
[14] = rats, RPG 0.4 mg/kg oral, QCT 100 mg/kg oral
[15] = rats, RPG 0.4 mg/kg oral, RPG alone
[16] = RPG 0.4 mg/kg iv, QCT 25 mg/kg iv
[17] = iv, RPG 0.4 mg/kg iv with QCT 25 mg/kg iv
[18] = iv, RPG 0.4 mg/kg iv, RPG alone

In the case of `CCOc1cc(CC(=O)N[C@@H](CC(C)C)c2ccccc2N2CCCCC2)ccc1C(=O)O` [RPG, Repaglinide], the “Change of fuP of RPG by the presence of QCT” value ([1]; human plasma, RPG and QCT 5 μM each) is reported as “not significantly altered”, the fraction unbound at 4 h, 5 μM ([1]; human, plasma (20-fold diluted), read-out: fuP (unbound fraction in plasma)) is reported as 0.0533 ± 0.006 and the “Km of RPG metabolism in the Ki estimation study” value (shortened to “Km of RPG metabolism”) ([2]; QCT 0 μM) is reported as 23 µM. For the same compound, the “Km of RPG metabolism” value ([2]; QCT 200 μM) was 111 µM, the “Change of fuMIC of RPG by the presence of QCT” value ([3]; HLM, RPG and QCT 5 μM each) was “not significantly altered” and the fraction unbound at 4 h, 5 μM ([3]; human, liver microsomes) was 0.62 ± 0.152. The “Vmax, metabolism of RPG” value [4] was 3070 ± 960 pmol/min/mg protein, the “Change of RB of RPG by the presence of QCT” value [5] was “not significantly altered” and the AUC [6, 11] was 803 ng·h/mL. It also gave a Cmax [6, 11] of 238 ± 76 ng/mL, a half-life [6, 11] of 148 ± 49 min and a bioavailability [6, 11] of 95.1%. The Cmax [6, 12] was 129 ± 33 ng/mL, the half-life [6, 12] was 139 ± 66 min and the bioavailability [6, 12] was 50.7%. The Tmax ([6]; Sprague-Dawley, rat, plasma, po, 0.4 mg/kg, read-out: Tmax, median (range) (converted)) was 45 min, the AeGI [6, 13] was 2.90 ± 2.50 % of dose and the AeU [6, 13] was 0.371 ± 0.336 % of dose. For the same compound, the “Tmax, median (range)” value [6, 13] was 45 (30–60) min, the “AUC of RPG higher with concurrent QCT than in control rats” value [6, 14] was 87.6% and the “Cmax of RPG higher with concurrent QCT than in control rats” value [6, 14] was 84.2%. The AeGI [6, 15] was 3.41 ± 1.65 % of dose, the AeU [6, 15] was 0.458 ± 0.441 % of dose and the “Increase of AUC of orally administered RPG by oral QCT” value ([6]; rats, RPG oral with QCT 100 mg/kg oral vs RPG alone) was 1.88 fold. For the same compound, the “Intestinal availability (FG)” value ([6]; rats, from F = Fabs × FG × FH with Fabs assumed 1) was 0.572–0.620, the “Fecal excretion of oral RPG” value ([6]; rats, oral) was 2.21–5.78 % of the dose administered and the fraction unbound at 4 h, 5 μM ([7]; Sprague-Dawley, rat, plasma (20-fold diluted), read-out: fuP (unbound fraction in plasma)) was 0.0761 ± 0.0094. The “Change of fuP of RPG by the presence of QCT” value ([7]; rat plasma, RPG and QCT 5 μM each) was “not significantly altered”, the “F of RPG” value [8] was “approximately 62.5%” and the “Hepatic availability (FH)” value ([9]; 1 − EH) was 0.818–0.886. The AeU ([9]; RPG 0.4 mg/kg iv with QCT 25 mg/kg iv) was 1.32 ± 0.88 % of dose, the “AUC of RPG higher with concurrent QCT than in control rats” value [9, 16] was 83.4% and the “CL of RPG lower with concurrent QCT than in control rats” value [9, 16] was 44.9%. The “Difference in Vss of RPG between QCT and control groups” value [9, 16] was “no significant differences”, the “t1/2 of RPG higher with concurrent QCT than in control rats” value [9, 16] was 40.8% and the AeU ([9]; RPG 0.4 mg/kg iv, RPG alone) was 1.60 ± 0.77 % of dose. For the same compound, the “Increase of AUC of intravenous RPG after concurrent QCT” value ([9]; RPG iv with QCT iv vs RPG alone) was 1.83 fold, the AUC [9, 17] was 1550 ng·h/mL and the clearance [9, 17] was 4.36 ± 0.54 mL/min/kg. The half-life [9, 17] was 57.4 ± 10.6 min, the Vd [9, 17] was 0.269 ± 0.025 L/kg and the AUC [9, 18] was 845 ng·h/mL. It also gave a clearance [9, 18] of 7.92 ± 0.47 mL/min/kg, a half-life [9, 18] of 40.8 ± 4.2 min and a Vd [9, 18] of 0.293 ± 0.018 L/kg. For the same compound, the “Urinary and fecal excretion of RPG administered intravenously” value ([9]; iv) was ≤ 1.60 % of the dose, the “Hepatic clearance CLH (blood clearance, CL/RB)” value ([9]; iv RPG alone, assuming exclusive hepatic metabolism) was 9.11 mL/min/kg and the “Km of RPG metabolism” value ([10]; QCT 0 μM) was 53 µM. For the same compound, the “Km of RPG metabolism” value ([10]; QCT 200 μM) was 81 µM.
